A melting point compilation (Tetko et al.; mined from patent text by program, amines drawn as free bases though some values may be those of a salt)

| melting point [°C] | SMILES |
| --- | --- |
| 180 to 183 | COc1ccc(C(=O)O)cc1OC(=O)c1ccccc1 |
| 185 | CNc1ccc2cnc(S(C)=O)nc2n1 (stereo unspecified) |
| 229 | Cc1cn(-c2nc(C3=Nc4ccc(-c5ccc(F)cc5)cc4NC(=O)C3)cs2)cn1 |
| 139 to 140 | O=C(O)[C@@H](CCCN1C(=O)c2ccccc2C1=O)NS(=O)(=O)c1ccc(Oc2ccccc2)cc1 |
| 113 to 115 | CC(=O)c1cc(S(=O)(=O)c2cccc(F)c2)ccc1OC[C@@H]1CO1 |
| 92 to 94 | COc1ccc2c(C=O)cccc2c1C(F)(F)F |
| 79.5 to 80.5 | Nc1cc(Cl)c(Cl)cc1I |
| 173 to 175 | Cn1c(CC(=O)O)ccc1C(=O)c1ccc(N)cc1 |
| 200 to 201 | Cc1cccc(C)c1N(CC(=O)NCC(=O)O)C(=O)c1ccc(Cl)cc1 |
| 189 | COc1nc(Cl)nc(N)c1C |
| 229 to 231 | Cc1c(OCc2ccccc2)ccc2c(O)c(C(=O)Nc3cccc(Br)c3)c(=O)oc12 |
| 118 to 120 | OCCOc1ccc2c(c1)oc1cc(Cl)ccc12 |
| 98 to 100 | COc1ccc2c(c1)OC1(O)c3ccccc3C(=O)C21O (stereo unspecified) |
| 217 to 220 | O=C(O)c1ccc(C(=O)C=Cc2ccccc2)cc1 |
| 130 to 132 | O=C(O)C=CC(=O)c1ccc(F)cc1 |
| 73 to 75 | COC(=O)Cc1ccccc1NS(C)(=O)=O |
| 155 to 159 | Cc1nc2ncnn2c(O)c1CCCOCC(C)(C)C |
| 79 to 81 | CCCCCN(C(=O)Cl)c1ccc2c(c1)C(C)(C)CCC2(C)C |
| 268 to 269 | O=C(O)c1csc(-c2ccccc2O)n1 |
| 233 to 236 | Cc1nc(N2CCCC2)ccc1N1CCCn2c1nc1c(Cl)ccc(C(OC(F)F)C(F)(F)F)c12 (stereo unspecified) |
| 219 to 221 | CCCn1nc2c(N)nc3ccccc3c2c1CCNC(=O)c1cccnc1 |
| 202 | CS(=O)(=O)C(=C1CN(C(c2ccccc2)c2ccccc2)C1)c1cc(Cl)ccc1Cl |
| 72 to 74 | CC(C)C[C@H](NC(=O)OC(C)(C)C)C(=O)C=[N+]=[N-] |
| 213 to 215 | NNC1CCC(c2ccccc2F)c2cc(Cl)ccc2N1 (stereo unspecified) |
| 115 | COc1ccc(-c2ccc(=O)n(Cc3nc4cc(F)ccc4o3)c2)cc1 |
| 100 to 102 | COC(=O)c1ccc(CNC(C)=O)c([N+](=O)[O-])c1 |

| melting point [°C] | SMILES |
| --- | --- |
| 148 to 149 | C(=C\c1nc(COc2ccc(CCCCn3cnc4ccccc43)cc2)co1)/c1ccccc1 |
| 128 to 130 | COc1ccc(SC)c2c1CC(N)(C#N)CC2 (stereo unspecified) |
| 97 to 99 | CC(C)OCC(O)CN1CCC2(CC1)CSC1=C(O2)c2ccccc2C(=O)C1=O (stereo unspecified) |
| 169 | Brc1ccc(-c2cc(-c3cccc(Br)c3)no2)cc1 |
| 98 to 101 | COc1ccc(-n2cc(C(=O)N(CC(=O)O)c3ccc(OCC(C)(C)C)c(C#N)c3)c(C)n2)cc1 |
| 147 to 149 | COc1ccc([N+](=O)[O-])c(CS(=O)(=O)c2ccccc2)n1 |
| > 310 | OCC1C=CC(n2cnc3c(O)ncnc32)O1 (stereo unspecified) |
| 151 to 153 | CCc1nn(C2CCCC2)c2cc(C(=O)NCCC(=O)O)ccc12 |
| 131 to 133 | CC(C)(c1ccc2c(=O)c3ccccc3sc2c1)[N+](=O)[O-] |
| 165 | COCc1c(C(=O)c2ccccc2)ncc2[nH]c3ccc(OCc4ccccc4)cc3c12 |
| 75 to 78 | O=c1ccoc2cc(OCCCCCl)ccc12 |
| 100 to 102 | O=C(c1ccccc1)c1cccc2c1CCC2C(=O)O (stereo unspecified) |
| 182 to 185 | CN(CCc1ccccc1)C(=O)Cn1cc(C(=O)O)c2cc(OCc3ccccc3)ccc21 |
| 199 to 200 | CSc1ccc(-c2cc(C(=O)O)nn2-c2ccc(F)cc2)cc1 |
| 151 to 152 | Cc1nnc(Cc2ccc(NC(=O)/C=C/c3cnn(C)c3-c3ccc(F)cc3)cc2)o1 |
| 133 | Cc1ccc(Cc2nc3c(cnn3C(CCCc3ccccc3)C(C)O)c(=O)[nH]2)cc1 (stereo unspecified) |
| 143 to 145 | c1ccc(COc2ccc3c(ccn3Nc3ccncc3)c2)cc1 |
| 222 | CCCCn1c(=S)sc2c(=N)n(NC(N)=O)cnc21 |
| 153 to 156 | Cc1nc2c(cc1C(=O)NC(=N)N)CCCCC2Cl (stereo unspecified) |
| 158 to 162 | COc1ccc(C(C#N)Cc2c(Cl)cncc2Cl)c2c1OC(C)(C)C2 (stereo unspecified) |
| 172 to 173 | CO/N=C(\C(=O)OCCSc1nc2ccccc2s1)c1csc(NC=O)n1 |
| 180 to 182 | O=C(NN=Cc1cc(Cl)cc(Cl)c1O)c1cccc(OC(F)(F)F)c1 |
| 212 to 214 | COc1ccc2c(c1)CCC1CCNC(=O)C(CNC(C)C)=C21 (stereo unspecified) |
| 96 to 97 | C=C1N(C)C(=O)OC12CCN(Cc1ccccc1)CC2 |
| 155 to 157 | COC(=O)Cc1ccc2nc(Nc3ccccc3)oc2c1 |
| 257 to 260 | CCOC(=O)c1cnc2cc(CC)ccc2c1O |

| melting point [°C] | SMILES |
| --- | --- |
| 176 to 177 | CC1=CC(OC(=O)C=Cc2ccc(O)cc2)C(O)C(C)(C)CC1=O (stereo unspecified) |
| 157 to 159 | CCOc1ccc(S(=O)(=O)c2ccc(C)nc2Nc2c(C)cc(C)cc2C)cc1 |
| 180 to 182 | COC(=O)N1CCN(Cc2nc(-c3ccc4c(c3)Nc3ccccc3S4)cs2)CC1 |
| 179 to 181 | CCCCCCC(C)NC1=NS(=O)(=O)c2sc(Cl)cc2N1 (stereo unspecified) |
| > 300 | O=C(O)c1ccc2c(c1)S(=O)(=O)N=C(n1ccnc1)N2 |
| 171 to 175 | c1ccc2c3c4c(nc2c1)CCCC4SCCN3 (stereo unspecified) |
| 226 to 230 | Cc1nc2c(N)nc3c(c2n1CC(C)C)CCNC3 |
| 160 to 161 | CNC(=O)N(O)Cc1cc2ccccc2s1 |
| 65 | CCOP(=O)(Cc1ccc(C2=NCCO2)cc1)OCC |
| 75 to 78 | Nc1nc(N)c(CCCCCc2ccccc2)c(CCCCc2ccccc2)n1 |
| 164 to 167 | O=C(O)C1CS(=O)(=O)C2CC(=O)N12 (stereo unspecified) |
| 148 to 150 | Cc1cc(C)nc(-c2ncc([N+](=O)[O-])n2C)n1 |
| 88 to 90 | CCCCC1(Cc2c(F)cccc2Cl)NC=C(C=O)N1 (stereo unspecified) |
| 164 to 166 | Cn1c2ccccc2c2cc(C(=O)C(C)(C)N3CCOCC3)ccc21 |
| 243 to 247 | COc1ccccc(NC(=O)C2=C(O)c3ccccc3S(=O)(=O)N2C)c1=O |
| 154 to 155 | CC(=O)Nc1cccc2ccc(OCC3CC3)cc12 |
| 168 to 169 | O=C(Nc1nnn(C(F)F)n1)C1c2ccccc2Oc2ccccc21 |
| 126 to 129 | CCOC(=O)c1ccn2ncc(-c3cccc(Cl)c3)c2n1 |
| 270 | O=c1c2ccc(-c3nnn[nH]3)cc2oc2ccc(OCCO)cc12 |
| 68 to 70 | CCOC(=O)N1CCN(c2nc(NC3CC3)ccc2F)CC1 |
| 241 to 243 | CC(=O)c1cc2cccc(NS(=O)(=O)c3cccs3)c2[nH]1 |
| 118 to 120 | C=C(C)C(=O)Nc1cccc(OC(=O)NC(C)(C)CC(C)(C)C)c1 |
| 218 to 220 | CC(=O)NCCCc1c[nH]c(-c2ccc(F)cc2)c1-c1ccncc1 |
| 63 to 65 | O=C(O)[C@H](Cc1ccccc1)NC(=S)Cc1ccccc1 |
| > 250 | O=C1C(=NO)Nc2c(Br)cccc21 |
| 112 to 113 | CC1OC(Cn2cncn2)(c2ccc(F)cc2F)C1(C)C (stereo unspecified) |

| melting point [°C] | SMILES |
| --- | --- |
| 176 to 177 | COP(=O)(Cc1ccc(NC(=O)/C=C/c2cnn(C)c2-c2ccoc2)cc1)OC |
| 166 to 168 | CCCCCc1cc(-c2cc(=O)c3c(O)cc(O)cc3o2)ccc1OC |
| 155 to 157 | CCCCOCCOc1ccc(-c2ccc3c(c2)C=C(C(=O)Nc2ccc(O)cc2)CCN3CC(C)C)cc1 |
| 177 to 179 | Cc1nc2cccc(OCC(C)(C)C(=O)NCC3CC3)c2c(N)c1C(=O)O |
| 126 to 127 | O=C(NCCO)c1cncc(-c2cccc3cc(Cc4cc(F)cc(Cl)c4)sc23)c1 |
| 160 to 162 | COc1ccc(-c2cc3ccccc3[nH]2)cc1NCc1cccc([N+](=O)[O-])c1 |
| 132 | COC(=O)c1cc(C(=O)NCCCCN2CCC(c3ccc4c(c3OC)CCCC4)CC2)ccc1-c1ccc(C(F)(F)F)cc1 |
| 78 to 80 | COC(=O)c1ccc(C(=O)N(C)c2ccccc2)cc1 |
| 49 to 52 | CS(=O)(=O)c1ccc(-c2cc(/C=C/CO)nn2CC2CCCCC2)cc1 |
| 250 | CC(=O)N1c2ccc(-c3ccc(-c4nnn[nH]4)cc3)cc2C(Nc2ccc(Cl)cc2)CC1C (stereo unspecified) |
| 242 to 243 | CCC(CC)(CCC#N)C(NC(=O)c1ccc(Cl)cc1)Nc1c(Nc2cccnc2)c(=O)c1=O (stereo unspecified) |
| 195 to 197 | COc1cccc(C=C2C(=O)NC(=O)N2C)c1 |
| 149 to 150 | C/C=C/Cn1c(Oc2cc(C)cc(C)c2)c(CC)c(=O)[nH]c1=O |
| 59 to 61 | COC(=O)CCc1nc(CCc2ccc(C(=O)OC)cc2)ccc1OCCCC/C=C/c1ccc(OC)cc1 |
| 221 to 222 | O=C1C2=C(C(=O)c3ccccc31)C(=O)C1CC(Cl)=CCC1C2=O (stereo unspecified) |
| 150 to 152 | Nc1nc(Nc2ccc(SC3(Cl)C=CC(C(F)(F)F)=CN3)cc2)sc1C(=O)c1ccccc1[N+](=O)[O-] (stereo unspecified) |
| 114 to 116 | CCOC(=O)c1c(N)sc(N=Cc2cccs2)c1C(=O)OCC |
| 285 | CC(=O)c1cc2sc(N)c(C#N)c2s1 |
| 80 to 82 | CCn1c(SC)cc2ccccc2c1=O |
| 179 to 180 | CC1(CC(=O)O)OCCC2=C1Cc1ccccc12 (stereo unspecified) |
| 205 to 206 | COC1(OC)CCN(c2nc3c(cc2F)C=C(C(=O)O)CN3c2ccc(F)cc2F)C1 |
| 153 to 160 | OC1c2cc(Cl)ccc2OCC1n1ccnc1 (stereo unspecified) |
| 178 to 181 | CC(=O)c1cccc2cc3cccc(C(C)=O)c3cc12 |
| 47 to 48 | Cc1ccccc1-n1ccnc1SCCCO |

| SMILES | melting point [°C] |
| --- | --- |
| CC1(C)CCC(C)(C)c2c(C(O)C#C[Si](C)(C)C)cc(-c3ccccc3)cc21 (stereo unspecified) | 145 |
| Cc1ccc2c(c1)C(c1ccccc1)=NCc1nnc(CN(C)C)n1-2 | 154 to 156 |
| N#CC1=C2N(Cc3ccc(Cl)nc3)CCN2C2CCC1O2 (stereo unspecified) | 125 to 127 |
| CCOP(=S)(CNSCNC(=O)ON=C(C)SC)OCC | 72 to 73 |
